In PMC6429214, “Design, Synthesis and Biological Evaluation of Isoxazole-Based CK1 Inhibitors Modified with Chiral Pyrrolidine Scaffolds” (Molecules, 2019):

Experiments:
MCF-7 cells = assay: MTT cell viability assay MCF-7; assay type: cell-based, human; details: Homo sapiens, MCF7, 48 h, mean ± SD
Experimental: (§1) The human colon adenocarcinoma cell line HT-29 was grown in McCoy’s 5A medium, whereas MCF7 cells were grown in DMEM medium. All media were supplemented with 10% fetal calf serum (FCS), 100 units/mL penicillin, 100 µg/mL streptomycin and 2 mM glutamine. All cells were grown at 37 °C in a humidified 5% carbon dioxide atmosphere.
(§2) In order to analyze the effects of selected inhibitors on the cell viability of HT-29 and MCF7 cells, MTT assays were performed. 1 × 10^4 cells/well were seeded in 96-well cell culture plates. After 24 h cells were treated with increasing concentrations of the indicated inhibitor compounds, with untreated and DMSO-treated cells as control. After an incubation period of 48 h, 10 µL of MTT solution (5 mg/mL in PBS) were added and cells were incubated for 4 h. MTT-containing medium was carefully removed and 100 µL acidic isopropanol (0.04 N HCl in isopropanol) per well were added. To dissolve formazan crystals, plates were shaken for 30 min on an orbital shaker in the dark. Finally, dissolved crystals were measured spectrophotometrically at 570 nm. All experiments were performed in triplicate with four technical replicates per assay. Results were normalized considering the mean optical density value of control wells as 100%. GraphPad Prism 6 software (San Diego, CA, USA) was used to calculate EC50 values.

human GST-CK1ε = target: T1, human GST-CK1ε (Homo sapiens, UniProt P49674); assay: in-vitro kinase assay CK1ε; assay type: biochemical; details: 10 µM ATP, mean ± SD, n = 3
T1 construct: purchased Invitrogen PV3500
Experimental: In vitro kinase assays have been performed to both screen, as well as to calculate IC50 values of the compounds for CK1δ and ε. Each reaction was carried out using 2 μCi ^32P-γ-ATP in kinase buffer containing 25 mM Tris-HCl (pH = 7.5), 10 mM MgCl2, 100 µM EDTA, and 10 µM ATP. […] Recombinant human CK1δ transcription variant 1 (expressed and purified as GST fusion protein as described earlier) and human GST-CK1ε (PV3500; Invitrogen) were used as sources of enzyme, while α-casein (C6780; Sigma-Aldrich) was used as substrate. Kinase reactions were incubated for 30 min at 30 °C and then stopped with loading dye (50 mM Tris-HCl (pH = 6.8), 5% (v/v) β-mercaptoethanol (MSH), 10% (v/v) glycerol, 2% (w/v) sodium dodecyl sulfate (SDS), 0.1% (w/v) bromphenol blue). Subsequently, reactions were separated by sodium dodecyl sulfate polyacrylamide gel electrophoresis (SDS-PAGE) and phosphorylated protein bands were visualized on dried gels by autoradiography. The phosphorylated substrate protein bands were excised, and phosphorylation was quantified by Cherenkov counting. Dose-response analyses and calculation of IC50 values were carried out using GraphPad Prism 6 statistical software (San Diego, CA, USA).

HT-29 cells = assay: MTT cell viability assay HT-29; assay type: cell-based, human; details: Homo sapiens, HT-29, 48 h, mean ± SD
Experimental: as §1, §2

T1 sequence (P49674 whole entry): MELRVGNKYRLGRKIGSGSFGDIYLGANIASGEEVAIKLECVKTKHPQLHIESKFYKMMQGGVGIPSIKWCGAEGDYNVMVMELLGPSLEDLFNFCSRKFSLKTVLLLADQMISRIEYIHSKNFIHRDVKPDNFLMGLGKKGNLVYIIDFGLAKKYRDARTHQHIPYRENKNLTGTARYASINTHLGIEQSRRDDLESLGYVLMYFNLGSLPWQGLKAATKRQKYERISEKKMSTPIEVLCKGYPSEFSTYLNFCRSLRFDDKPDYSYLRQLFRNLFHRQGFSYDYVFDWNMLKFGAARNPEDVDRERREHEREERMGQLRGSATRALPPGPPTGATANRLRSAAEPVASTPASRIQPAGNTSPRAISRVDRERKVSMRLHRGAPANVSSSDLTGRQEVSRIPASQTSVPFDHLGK

Molecule `COc1ccc(-c2cc(C(=O)Nc3cc(-c4c(-c5ccc(F)cc5)noc4C(C)C)ccn3)n(CC3NCC(O)C3O)c2)cc1` (stereo not shown) [29d] has a viability at 5 µM (MCF-7 cells; 5 µM) of 100 ± 16%, a viability at 10 µM (MCF-7 cells; 10 µM) of 76 ± 19% and a viability at 20 µM (MCF-7 cells; 20 µM) of 5.6 ± 1.5%. It also gave an EC50 (MCF-7 cells) of 10 ± 2 µM, an IC50 (human GST-CK1ε) of 0.065 ± 0.012 µM and a remaining activity at 10 µM (human GST-CK1ε; 10 µM compound, read-out: CK1ε Residual Activity [%] at 10 µM ± SD) of 12 ± 2%. For the same molecule, the viability at 5 µM (HT-29 cells; 5 µM) was 76 ± 13%, the viability at 10 µM (HT-29 cells; 10 µM) was 51 ± 8% and the viability at 20 µM (HT-29 cells; 20 µM) was 14 ± 2%. For the same molecule, the EC50 (HT-29 cells) was 8 ± 1.7 µM.
